{"source": "patent US20240366526A1", "about": "“COMPOSITIONS AND METHODS FOR MAINTAINING OR ENHANCING MICROBIAL BALANCE OF THE SKIN AND MUCOSA” (Reckitt Benckiser Health Limited, priority 2023, published 2024)", "experiment_in_all_cases": "MIC determination (EUCAST / ISO 20776 microdilution)", "type_in_all_cases": "cell-based", "key": {"[1]": {"tested_on": "Gardnerella vaginalis LF1", "settings": "clinical vaginal isolate; 37° C., microaerophilic, 24 and 48 h; single substance", "from_the_text": "The strains used were Lactobacillus crispatus LF6 and Lactobacillus gasseri LF7), one strain of Gardnerella vaginalis LF1 and one strain of Candida albicans LF, that correspond to clinical isolates collected from women vaginal cavity. The antimicrobial activity method was based on the current standards described by EUCAST (European Committee on Antimicrobial Susceptibility Testing) and ISO 20776-1 (2006) and ISO 20776-2-(2007) for determining the minimum inhibitory concentration (MIC). Terpinen-4-ol and Carvacrol were emulsified with DMSO (up to 1% (v/v)) in culture medium to obtain a concentration corresponding to 2× higher than the testing one. Sequential dilutions (1:2) were prepared in a sterile 96 wells plate with culture medium. […]\nIn parallel, calibrated suspensions of microorganisms were prepared with a cell density of 1.0 on the McFarland scale (Lactobacillus spp. and Candida albicans) and 0.13 absorbance (Gardnerella vaginalis), corresponding to 1×10^8 CFU/mL for bacteria (Lactobacillus spp. and Gardnerella vaginalis) and 1×10^6 CFU/mL for yeast (Candida albicans). […]\nAfter homogenization of the working microbial suspension with dilutions of the two ingredients, the 96-well plates were incubated according to the incubation conditions suitable for each microorganism. […] After incubation, the wells were evaluated macroscopically to check for microorganism growth. […]"}, "Candida albicans LF1": {"tested_on": "Candida albicans LF1", "protocol": "(§1) Sequential dilutions (1:2) were prepared in a sterile 96 wells plate with culture medium. All preparations were performed in aseptic conditions. For each of the ingredients tested, 8 concentrations were tested. […] De Man, Rogosa and Sharpe Broth (MRSB) media was used for growth of Lactobacillus spp., New York City III Broth ([…]) media and Roswell Park Memorial Institute 1640 (RPMI-1640) media was used respectively to grow Gardnerella vaginalis and Candida albicans. […] After homogenization of the working microbial suspension with dilutions of the two ingredients, the 96-well plates were incubated according to the incubation conditions suitable for each microorganism. For, L. crispatus and L. gasseri, incubation was done at 37° C. for 24 and 48h in microaerophilic atmosphere. […] After incubation, the wells were evaluated macroscopically to check for microorganism growth. Turbid wells indicated the presence of microbial growth, and clear wells indicated the absence of microbial growth. The lowest concentration tested in which wells without turbidity, correspondent to the minimum inhibitory concentration (MIC). To validate the test, three negative controls (sterility control of the culture medium; study substance dilutions with culture medium; emulsifier with culture medium) and two positive controls (growth control for each microorganism using culture media and growth control for each microorganism using emulsifier with culture media) were performed."}, "[2]": {"tested_on": "Lactobacillus gasseri LF7", "protocol": "as §1"}, "[3]": {"tested_on": "Lactobacillus crispatus LF6", "protocol": "as §1"}, "[4]": {"settings": "terpinen-4-ol 2.5 μl/ml and 5 μl/ml"}}}
{"smiles": "Cc1ccc(C(C)C)cc1O", "note": "[Carvacrol, carvacrol]", "values": [{"measurement": "MIC for Gardenella vaginalis LF1", "setting": "[1]", "result": 0.31, "unit": "μl/ml"}, {"measurement": "inhibition for C. albicans LF1", "setting": "Candida albicans LF1; carvacrol 0.31 μl/ml", "result": 50, "unit": "%"}, {"measurement": "effect on Lactobacillus gasseri growth", "setting": "[2]; carvacrol 0.31 μl/ml", "result": "unaffected"}, {"measurement": "effect on Lactobacillus crispatus growth", "setting": "[3]; carvacrol 0.31 μl/ml", "result": "unaffected"}]}
{"smiles": "CC1=CCC(O)(C(C)C)CC1", "note": "(centres unmarked) [Terpinen-4-ol]", "values": [{"measurement": "MIC for Gardenella vaginalis LF1", "setting": "[1]", "result": 2.5, "unit": "μl/ml"}, {"measurement": "MIC for C. albicans LF1", "setting": "Candida albicans LF1; clinical vaginal isolate, 32.5° C., aerophilic, 24 and 48 h, single substance", "result": 5, "unit": "μl/ml"}, {"measurement": "effect on Lactobacillus gasseri growth", "setting": "[2]; [4]", "result": "unaffected"}, {"measurement": "effect on Lactobacillus crispatus growth", "setting": "[3]; [4]", "result": "unaffected"}]}
